Patent US9028870B2, “Hydrogel-driven drug dosage form” (Bend Research, Inc., priority 1999, dated 2015)
In brackets after ≈: the same amount, converted by molar mass. Each block holds one compound with its values, some of them ahead of it.

Columns and labels:
[1] = aqueous solubility as stated for drugs and organic acids

Compound: 4-[3-[4-(2-methylimidazol-1-yl)phenylthio]phenyl]-3,4,5,6-tetrahydro-2H-pyran-4-carboxamide hemifumarate [Drug 3]
solubility ([1]; pH 4): 3.7 mgA/mL

Compound: O=C(N[C@@H](Cc1ccccc1)[C@@H](O)C(=O)N1C[C@@H](O)[C@@H](O)C1)c1cc2cc(Cl)ccc2[nH]1 [Drug 4, 5-chloro-1H-indole-2-carboxylic acid [(1S)-benzyl-3-((3R,4S)-dihydroxypyrrolidin-1-yl-)-(2R)-hydroxy-3-oxypropyl]amide]
water solubility ([1]; water): 80 µg/mL (≈ 175 µM)

Compound: CC(C(=O)O)c1ccc2c(c1)[nH]c1ccc(Cl)cc12 (stereo not shown) [Drug 6, carprofen]
solubility ([1]; pH 5.9, aqueous buffer): ~15 µg/mL (≈ 54.8 µM)

Compound: NC(=O)N1C(=O)/C(=C(\O)c2cccs2)c2cc(Cl)ccc21 [Drug 7, Tenidap]
solubility (physchem; pH 3.7, aqueous buffer): 2 µg/mL (≈ 6.24 µM)
solubility (physchem; pH 7.4, aqueous buffer): 200 µg/mL (≈ 624 µM)

Continued, values first:

solubility ([1]; pH 6, aqueous buffer): ~20 µg/mL (≈ 42.1 µM)
Compound: CCCc1nn(C)c2c(=O)[nH]c(-c3cc(S(=O)(=O)N4CCN(C)CC4)ccc3OCC)nc12 [Drug 1, 1-[4-ethoxy-3-(6,7-dihydro-1-methyl-7-oxo-3-propyl-1H-pyrazolo[4,3-d]pyrimidin-5-yl)phenylsulphony]-4-methylpiperazine]

solubility ([1]; model fasted duodenal solution): 3 µg/mL (≈ 7.26 µM)
Compound: O=C1Cc2cc(CCN3CCN(c4nsc5ccccc45)CC3)c(Cl)cc2N1 [Drug 5]
